In patent US20130209543A1, “ENHANCED TREATMENT REGIMENS USING MTOR INHIBITORS” (Intellikine LLC, priority 2011, published 2013):

Assays:
[1] = Phase I clinical trial: plasma pharmacokinetics; type: in vivo, human; conditions: for AUC / Cmax: oral
Procedure: (§1) Adult patients with histologically confirmed advanced solid tumors were enrolled in a 3+3 dose escalation Phase I study evaluating 3 intermittent schedules of administration for compound A: QW (once weekly), QD×3d QW (3 days on 4 days off), and QD×5d QW (5 days on 2 days off), in comparison with daily dosing (QD). Safety, maximum tolerated dose (MTD), pharmacokinetics (PK) and preliminary antitumor activity were evaluated.

[2] = Phase I clinical trial: grade 3 or greater treatment-emergent adverse events (Table 9); type: in vivo
Procedure: as §1
Pharmacodynamic (PD) endpoints were evaluated in surrogate (peripheral blood cells [PBCs], skin) and tumor tissues for the phosphorylation of TORC1-dependent markers (4EBP1/S6), and TORC2-dependent markers (AKT/PRAS40). 50 patients were treated in 3 intermittent dosing regimens; 21 in 6 cohorts ranging 7-40 mg QW, 20 in 5 cohorts ranging 6-20 mg QD×3d QW, and 9 in 3 cohorts ranging 7-13 mg QD×5d QW. […] The MTD for intermittent dosing was not reached. All adverse events (AEs) reported were reversible. The most common (≧20%, n=35) AEs considered possibly related to compound A reported in all 3 dosing regimens included nausea (51%), hyperglycemia (37%), mucosal inflammation (29%), rash (23%), asthenia (23%), vomiting (26%), and diarrhea (20%). The majority of AEs considered possibly related to compound A in any regimen were Grade 1 or 2. The only reported Grade≧3 AE (≧5%) possibly related to compound A in 3 regimens was lymphopenia (6%). Tables 4-9 show summaries of observed adverse events for various treatment regimens of the invention.

CC(C)n1nc(-c2ccc3oc(N)nc3c2)c2c(N)ncnc21 [compound A]
1 (4%): Abdominal pain upper, Grade 3 or greater TEAE ([2]; Total QD Dosing, N = 25) | Anaemia, grade 3 or greater TEAE ([2]; Total QD Dosing, N = 25) | Catheter related infection, Grade 3 or greater TEAE ([2]; Total QD Dosing, N = 25) | Cellulitis, Grade 3 or greater TEAE ([2]; Total QD Dosing, N = 25) | Diarrhoea, grade 3 or greater TEAE ([2]; Total QD Dosing, N = 25) | Enterocutaneous fistula, Grade 3 or greater TEAE ([2]; Total QD Dosing, N = 25) | Pancreatitis acute, Grade 3 or greater TEAE ([2]; Total QD Dosing, N = 25) | Pleural effusion, Grade 3 or greater TEAE ([2]; Total QD Dosing, N = 25) | Somnolence, Grade 3 or greater TEAE ([2]; Total QD Dosing, N = 25)
400 nM: Cmax ([1]; human, plasma, 20 mg Q3D)
10 µM·h: AUC ([1]; human, plasma, 10 mg Q5D) | AUC ([1]; human, plasma, 20 mg Q3D)
1 (7%): Asthenia, grade 3 or greater TEAE ([2]; Total QDx3d QW, N = 14) | Diarrhoea, grade 3 or greater TEAE ([2]; Total QDx3d QW, N = 14) | Disease progression, grade 3 or greater TEAE ([2]; Total QDx3d QW, N = 14) | Gamma-glutamyltransferase increased, Grade 3 or greater TEAE ([2]; Total QDx3d QW, N = 14) | Gastroenteritis, Grade 3 or greater TEAE ([2]; Total QDx3d QW, N = 14) | Hyperglycaemia, grade 3 or greater TEAE ([2]; Total QDx3d QW, N = 14) | Lymphopenia, grade 3 or greater TEAE ([2]; Total QDx3d QW, N = 14) | Rash macular, Grade 3 or greater TEAE ([2]; Total QDx3d QW, N = 14) | Urinary tract infection, Grade 3 or greater TEAE ([2]; Total QDx3d QW, N = 14) | Aspartate aminotransferase increased, Grade 3 or greater TEAE ([2]; Total QW Dosing, N = 15) | Diarrhoea, grade 3 or greater TEAE ([2]; Total QW Dosing, N = 15) | Gamma-glutamyltransferase increased, Grade 3 or greater TEAE ([2]; Total QW Dosing, N = 15) | Lymphopenia, grade 3 or greater TEAE ([2]; Total QW Dosing, N = 15)
250 nM: Cmax ([1]; human, plasma, 10 mg Q5D)
2 (3%): Gamma-glutamyltransferase increased, Grade 3 or greater TEAE ([2]; Total, N = 60) | Hypokalaemia, grade 3 or greater TEAE ([2]; Total, N = 60) | Hyponatraemia, grade 3 or greater TEAE ([2]; Total, N = 60) | Pruritus, grade 3 or greater TEAE ([2]; Total, N = 60) | Thrombocytopenia, grade 3 or greater TEAE ([2]; Total, N = 60)
7 (50%): Patients Reporting at Least One Grade 3 or Greater TEAE ([2]; Total QDx3d QW, N = 14)
4 (16%): Hyperglycaemia, grade 3 or greater TEAE ([2]; Total QD Dosing, N = 25)
7 (28%): Rash, grade 3 or greater TEAE ([2]; Total QD Dosing, N = 25)
300 nM: Cmax ([1]; human, plasma, 13 mg Q5D)
6%: Grade≧3 AE (≧5%) possibly related: lymphopenia ([2]; 3 regimens)
3 (5%): Diarrhoea, grade 3 or greater TEAE ([2]; Total, N = 60)
1 (2%): Abdominal pain upper, Grade 3 or greater TEAE ([2]; Total, N = 60) | Anaemia, grade 3 or greater TEAE ([2]; Total, N = 60) | Aspartate aminotransferase increased, Grade 3 or greater TEAE ([2]; Total, N = 60) | Asthenia, grade 3 or greater TEAE ([2]; Total, N = 60) | Catheter related infection, Grade 3 or greater TEAE ([2]; Total, N = 60) | Cellulitis, Grade 3 or greater TEAE ([2]; Total, N = 60) | Disease progression, grade 3 or greater TEAE ([2]; Total, N = 60) | Enterocutaneous fistula, Grade 3 or greater TEAE ([2]; Total, N = 60) | Gastroenteritis, Grade 3 or greater TEAE ([2]; Total, N = 60) | Pancreatitis acute, Grade 3 or greater TEAE ([2]; Total, N = 60) | Pleural effusion, Grade 3 or greater TEAE ([2]; Total, N = 60) | Rash macular, Grade 3 or greater TEAE ([2]; Total, N = 60) | Somnolence, Grade 3 or greater TEAE ([2]; Total, N = 60) | Urinary tract infection, Grade 3 or greater TEAE ([2]; Total, N = 60)
150 nM: Cmax ([1]; human, plasma, 6 mg QD)
5 µM·h: AUC ([1]; human, plasma, 30 mg QW)
0.5 to 4 h: Tmax ([1]; human, plasma, oral doses, patients)
dose-linear plasma PK: Plasma exposures (Cmax and AUC0-24) versus dose ([1]; oral doses)
480 min: half-life ([1]; human, plasma, oral doses, patients, read-out: mean elimination plasma t1/2 (converted))
3 (20%): Patients Reporting at Least One Grade 3 or Greater TEAE ([2]; Total QW Dosing, N = 15)
350 nM: Cmax ([1]; human, plasma, 16 mg Q3D)
6.5 µM·h: AUC ([1]; human, plasma, 40 mg QW)
13 µM·h: AUC ([1]; human, plasma, 13 mg Q5D)
700 nM: Cmax ([1]; human, plasma, 40 mg QW)
8 µM·h: AUC ([1]; human, plasma, 6 mg QD) | AUC ([1]; human, plasma, 16 mg Q3D)
600 nM: Cmax ([1]; human, plasma, 30 mg QW)
5 (8%): Hyperglycaemia, grade 3 or greater TEAE ([2]; Total, N = 60)
0 (0%): Aspartate aminotransferase increased, Grade 3 or greater TEAE ([2]; Total QD Dosing, N = 25) | Asthenia, grade 3 or greater TEAE ([2]; Total QD Dosing, N = 25) | Disease progression, grade 3 or greater TEAE ([2]; Total QD Dosing, N = 25) | Gamma-glutamyltransferase increased, Grade 3 or greater TEAE ([2]; Total QD Dosing, N = 25) | Gastroenteritis, Grade 3 or greater TEAE ([2]; Total QD Dosing, N = 25) | Rash macular, Grade 3 or greater TEAE ([2]; Total QD Dosing, N = 25) | Urinary tract infection, Grade 3 or greater TEAE ([2]; Total QD Dosing, N = 25) | Abdominal pain upper, Grade 3 or greater TEAE ([2]; Total QDx3d QW, N = 14) | Anaemia, grade 3 or greater TEAE ([2]; Total QDx3d QW, N = 14) | Aspartate aminotransferase increased, Grade 3 or greater TEAE ([2]; Total QDx3d QW, N = 14) | Catheter related infection, Grade 3 or greater TEAE ([2]; Total QDx3d QW, N = 14) | Cellulitis, Grade 3 or greater TEAE ([2]; Total QDx3d QW, N = 14) | Enterocutaneous fistula, Grade 3 or greater TEAE ([2]; Total QDx3d QW, N = 14) | Hypokalaemia, grade 3 or greater TEAE ([2]; Total QDx3d QW, N = 14) | Hyponatraemia, grade 3 or greater TEAE ([2]; Total QDx3d QW, N = 14) | Pancreatitis acute, Grade 3 or greater TEAE ([2]; Total QDx3d QW, N = 14) | Pleural effusion, Grade 3 or greater TEAE ([2]; Total QDx3d QW, N = 14) | Pruritus, grade 3 or greater TEAE ([2]; Total QDx3d QW, N = 14) | Rash, grade 3 or greater TEAE ([2]; Total QDx3d QW, N = 14) | Somnolence, Grade 3 or greater TEAE ([2]; Total QDx3d QW, N = 14) | Thrombocytopenia, grade 3 or greater TEAE ([2]; Total QDx3d QW, N = 14) | Abdominal pain upper, Grade 3 or greater TEAE ([2]; Total QDx5d QW, N = 6) | Anaemia, grade 3 or greater TEAE ([2]; Total QDx5d QW, N = 6) | Aspartate aminotransferase increased, Grade 3 or greater TEAE ([2]; Total QDx5d QW, N = 6) | Asthenia, grade 3 or greater TEAE ([2]; Total QDx5d QW, N = 6) | Catheter related infection, Grade 3 or greater TEAE ([2]; Total QDx5d QW, N = 6) | Cellulitis, Grade 3 or greater TEAE ([2]; Total QDx5d QW, N = 6) | Diarrhoea, grade 3 or greater TEAE ([2]; Total QDx5d QW, N = 6) | Disease progression, grade 3 or greater TEAE ([2]; Total QDx5d QW, N = 6) | Enterocutaneous fistula, Grade 3 or greater TEAE ([2]; Total QDx5d QW, N = 6) | Gamma-glutamyltransferase increased, Grade 3 or greater TEAE ([2]; Total QDx5d QW, N = 6) | Gastroenteritis, Grade 3 or greater TEAE ([2]; Total QDx5d QW, N = 6) | Hyperglycaemia, grade 3 or greater TEAE ([2]; Total QDx5d QW, N = 6) | Hypokalaemia, grade 3 or greater TEAE ([2]; Total QDx5d QW, N = 6) | Hyponatraemia, grade 3 or greater TEAE ([2]; Total QDx5d QW, N = 6) | Lymphopenia, grade 3 or greater TEAE ([2]; Total QDx5d QW, N = 6) | Pancreatitis acute, Grade 3 or greater TEAE ([2]; Total QDx5d QW, N = 6) | Patients Reporting at Least One Grade 3 or Greater TEAE ([2]; Total QDx5d QW, N = 6) | Pleural effusion, Grade 3 or greater TEAE ([2]; Total QDx5d QW, N = 6) | Pruritus, grade 3 or greater TEAE ([2]; Total QDx5d QW, N = 6) | Rash macular, Grade 3 or greater TEAE ([2]; Total QDx5d QW, N = 6) | Rash, grade 3 or greater TEAE ([2]; Total QDx5d QW, N = 6) | Somnolence, Grade 3 or greater TEAE ([2]; Total QDx5d QW, N = 6) | Thrombocytopenia, grade 3 or greater TEAE ([2]; Total QDx5d QW, N = 6) | Urinary tract infection, Grade 3 or greater TEAE ([2]; Total QDx5d QW, N = 6) | Abdominal pain upper, Grade 3 or greater TEAE ([2]; Total QW Dosing, N = 15) | Anaemia, grade 3 or greater TEAE ([2]; Total QW Dosing, N = 15) | Asthenia, grade 3 or greater TEAE ([2]; Total QW Dosing, N = 15) | Catheter related infection, Grade 3 or greater TEAE ([2]; Total QW Dosing, N = 15) | Cellulitis, Grade 3 or greater TEAE ([2]; Total QW Dosing, N = 15) | Disease progression, grade 3 or greater TEAE ([2]; Total QW Dosing, N = 15) | Enterocutaneous fistula, Grade 3 or greater TEAE ([2]; Total QW Dosing, N = 15) | Gastroenteritis, Grade 3 or greater TEAE ([2]; Total QW Dosing, N = 15) | Hyperglycaemia, grade 3 or greater TEAE ([2]; Total QW Dosing, N = 15) | Hypokalaemia, grade 3 or greater TEAE ([2]; Total QW Dosing, N = 15) | Hyponatraemia, grade 3 or greater TEAE ([2]; Total QW Dosing, N = 15) | Pancreatitis acute, Grade 3 or greater TEAE ([2]; Total QW Dosing, N = 15) | Pleural effusion, Grade 3 or greater TEAE ([2]; Total QW Dosing, N = 15) | Pruritus, grade 3 or greater TEAE ([2]; Total QW Dosing, N = 15) | Rash macular, Grade 3 or greater TEAE ([2]; Total QW Dosing, N = 15) | Rash, grade 3 or greater TEAE ([2]; Total QW Dosing, N = 15) | Somnolence, Grade 3 or greater TEAE ([2]; Total QW Dosing, N = 15) | Thrombocytopenia, grade 3 or greater TEAE ([2]; Total QW Dosing, N = 15) | Urinary tract infection, Grade 3 or greater TEAE ([2]; Total QW Dosing, N = 15)
7 (12%): Rash, grade 3 or greater TEAE ([2]; Total, N = 60)
2 (8%): Hypokalaemia, grade 3 or greater TEAE ([2]; Total QD Dosing, N = 25) | Hyponatraemia, grade 3 or greater TEAE ([2]; Total QD Dosing, N = 25) | Lymphopenia, grade 3 or greater TEAE ([2]; Total QD Dosing, N = 25) | Pruritus, grade 3 or greater TEAE ([2]; Total QD Dosing, N = 25) | Thrombocytopenia, grade 3 or greater TEAE ([2]; Total QD Dosing, N = 25)
4 (7%): Lymphopenia, grade 3 or greater TEAE ([2]; Total, N = 60)
